Data reported in US20250122160A1, “PROTEIN TYROSINE PHOSPHATASE INHIBITORS AND METHODS OF USE THEREOF” (Calico Life Sciences LLC, priority 0001, published 2025).

Key:
[1] = biological target: T1, His tagged PTPN2 (TC45) protein (Homo sapiens, UniProt P17706); assay: Mobility shift assay (MSA) to determine potency of PTPN2 inhibitors; format: biochemical; details: 0.5 nM enzyme, 2 μM substrate
T1 construct: made in house
T1 sequence (P17706 with tags, fused parts or gaps isoform P17706-2): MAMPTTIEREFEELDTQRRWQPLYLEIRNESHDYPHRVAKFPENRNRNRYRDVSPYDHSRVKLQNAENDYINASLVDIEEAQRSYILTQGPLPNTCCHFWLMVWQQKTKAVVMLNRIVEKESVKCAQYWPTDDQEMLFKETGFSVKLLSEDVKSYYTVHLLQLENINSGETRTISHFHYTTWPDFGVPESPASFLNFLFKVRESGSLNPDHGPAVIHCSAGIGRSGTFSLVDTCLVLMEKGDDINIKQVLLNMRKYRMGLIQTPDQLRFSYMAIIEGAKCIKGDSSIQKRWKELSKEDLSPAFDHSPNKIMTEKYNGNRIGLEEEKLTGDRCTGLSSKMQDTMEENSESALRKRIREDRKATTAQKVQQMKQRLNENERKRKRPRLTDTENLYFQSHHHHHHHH
Method in brief: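 His-tagged human PTPN2 (TC45), 0.5 nM, preincubated 10 min at room temperature with compound (12-point, 1:3 dilutions) in HEPES pH 7.5 buffer with EGTA, EDTA, Tween 20 and DTT. Then 2 μM OG488-labelled phospho-insulin-receptor peptide was added for 10 min and quenched. % conversion was read by mobility shift, and IC50 came from % inhibition.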

[2] = biological target: T2, His tagged full-length PTPN1 protein (Homo sapiens, UniProt P18031); assay: Mobility shift assay (MSA) to determine potency of PTPN1 inhibitors; format: biochemical; details: 0.5 nM enzyme, 2 μM substrate
T2 construct: made in house
T2 sequence (P18031 with tags, fused parts or gaps): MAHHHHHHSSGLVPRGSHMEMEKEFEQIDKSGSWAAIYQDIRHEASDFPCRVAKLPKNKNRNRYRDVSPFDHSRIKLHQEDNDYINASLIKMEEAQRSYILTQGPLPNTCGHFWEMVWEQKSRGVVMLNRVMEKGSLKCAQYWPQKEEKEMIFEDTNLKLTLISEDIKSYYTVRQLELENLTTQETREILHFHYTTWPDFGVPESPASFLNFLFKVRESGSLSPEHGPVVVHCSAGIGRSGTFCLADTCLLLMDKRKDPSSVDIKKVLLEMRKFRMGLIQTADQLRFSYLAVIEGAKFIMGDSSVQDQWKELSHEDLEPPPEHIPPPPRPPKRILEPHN
Method in brief: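 His-tagged full-length human PTPN1 (0.5 nM) preincubated with compound 10 min at room temperature in pH 7.5 HEPES buffer with EGTA, EDTA, Tween 20 and DTT. Dephosphorylation of 2 μM fluorescent phospho-insulin-receptor peptide over 10 min measured by mobility shift. IC50 from % inhibition across a 12-point, 1:3 dilution series.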

| IC50 [2] | Structure (SMILES) | IC50 [1] |
| --- | --- | --- |
| 10 to 100 nM | O=C1CN(c2c(O)cc3c(c2F)CC(CNCC2CC2)CC3)S(=O)(=O)N1 (stereo not shown) [Compound 399, 5-(7-{[(cyclopropylmethyl)amino]methyl}-1-fluoro-3-hydroxy-5,6,7,8-tetrahydronaphthalen-2-yl)-1λ^6,2,5-thiadiazolidine-1,1,3-trione] | 10 to 100 nM |
| 10 to 100 nM | O=C1CN(c2c(O)cc3c(c2F)CC(CNCC2CCC2)CC3)S(=O)(=O)N1 (stereo not shown) [Compound 400, 5-(7-{[(cyclobutylmethyl)amino]methyl}-1-fluoro-3-hydroxy-5,6,7,8-tetrahydronaphthalen-2-yl)-1λ^6,2,5-thiadiazolidine-1,1,3-trione] | 10 to 100 nM |
| > 100 nM | N[C@@H]1CCc2cc(O)c(N3CC(=O)NS3(=O)=O)c(F)c2[C@H]1O [Compound 401, 5-[(7R,8R)-7-amino-1-fluoro-3,8-dihydroxy-5,6,7,8-tetrahydronaphthalen-2-yl]-1λ^6,2,5-thiadiazolidine-1,1,3-trione] | > 100 nM |
| > 100 nM | CC(=O)N[C@@H]1CCc2cc(O)c(N3CC(=O)NS3(=O)=O)c(F)c2C1 [Compound 402, N-[(2R)-8-fluoro-6-hydroxy-7-(1,1,4-trioxo-1λ^6,2,5-thiadiazolidin-2-yl)-1,2,3,4-tetrahydronaphthalen-2-yl]acetamide] | > 100 nM |
| 10 to 100 nM | O=C1CN(c2c(O)cc3c(c2F)CC(CNCCO)CC3)S(=O)(=O)N1 (stereo not shown) [Compound 403, 5-(1-fluoro-3-hydroxy-7-{[(2-hydroxyethyl)amino]methyl}-5,6,7,8-tetrahydronaphthalen-2-yl)-1λ^6,2,5-thiadiazolidine-1,1,3-trione] | 10 to 100 nM |
| 10 to 100 nM | NC[C@H]1CCc2cc(O)c(N3CC(=O)NS3(=O)=O)c(F)c2C1 [Compound 404, 5-[(7S)-7-(aminomethyl)-1-fluoro-3-hydroxy-5,6,7,8-tetrahydronaphthalen-2-yl]-1λ^6,2,5-thiadiazolidine-1,1,3-trione] | 10 to 100 nM |
| 10 to 100 nM | NC[C@@H]1CCc2cc(O)c(N3CC(=O)NS3(=O)=O)c(F)c2C1 [Compound 405, 5-[(7R)-7-(aminomethyl)-1-fluoro-3-hydroxy-5,6,7,8-tetrahydronaphthalen-2-yl]-1λ^6,2,5-thiadiazolidine-1,1,3-trione] | 10 to 100 nM |
| > 100 nM | CC(C)CCN[C@@H]1CCc2cc(O)c(N3CC(=O)NS3(=O)=O)c(F)c2[C@H]1O [Compound 406, 5-{(7R,8R)-1-fluoro-3,8-dihydroxy-7-[(3-methylbutyl)amino]-5,6,7,8-tetrahydronaphthalen-2-yl}-1λ^6,2,5-thiadiazolidine-1,1,3-trione] | 10 to 100 nM |
| 1 to 10 nM | NCC(F)(F)CCCN[C@@H]1CCc2cc(O)c(N3CC(=O)NS3(=O)=O)c(F)c2C1 [Compound 409, 5-{(7R)-7-[(5-amino-4,4-difluoropentyl)amino]-1-fluoro-3-hydroxy-5,6,7,8-tetrahydronaphthalen-2-yl}-1λ^6,2,5-thiadiazolidine-1,1,3-trione] | 1 to 10 nM |
| 1 to 10 nM | CCCCN[C@@H]1CCc2cc(O)c(N3CC(=O)NS3(=O)=O)c(F)c2C1 [Compound 410, 5-[(7R)-7-(butylamino)-1-fluoro-3-hydroxy-5,6,7,8-tetrahydronaphthalen-2-yl]-1λ^6,2,5-thiadiazolidine-1,1,3-trione] | 1 to 10 nM |
| 1 to 10 nM | CC(C)CCN[C@H]1Cc2c(cc(O)c(N3CC(=O)NS3(=O)=O)c2F)C[C@@H]1O [Compound 411, 5-{(6S,7S)-1-fluoro-3,6-dihydroxy-7-[(3-methylbutyl)amino]-5,6,7,8-tetrahydronaphthalen-2-yl}-1λ^6,2,5-thiadiazolidine-1,1,3-trione] | < 1 nM |
